One experiment addresses T1, c-kit (Homo sapiens, UniProt P10721).
T1 construct: MO7e (human megakaryocytic leukemia cell line) which had been arrested for 20 hr; endogenous in cells; host or cells: MO7e human megakaryocytic leukemia cell line
Briefly: Inhibitory activity against c-kit autophosphorylation (MO7e cells, h-SCF). Conditions: for IC50: MO7e cells, h-SCF 50 ng/ml, read-out: c-kit IC50; for inhibition at 1 µM: Mo7e, figure in parentheses in −( ), at 1000 nM. It is filed as cell-based. The method in brief: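 First, human megakaryocytic leukemia MO7e cells arrested 20 hr receive compound for one hour. Second, SCF stimulation (50 ng/ml) runs 5 min, after which cells are solubilized. Third, tyrosine-phosphorylated c-kit in the lysate is quantified by sandwich ELISA with absorbance at 450 nm.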

A further experiment deals with T2, PDGF-Ra (Homo sapiens, UniProt P16234).
T2 construct: host or cells: G-292 human osteosarcoma cells
T2 sequence (P16234 24-1089): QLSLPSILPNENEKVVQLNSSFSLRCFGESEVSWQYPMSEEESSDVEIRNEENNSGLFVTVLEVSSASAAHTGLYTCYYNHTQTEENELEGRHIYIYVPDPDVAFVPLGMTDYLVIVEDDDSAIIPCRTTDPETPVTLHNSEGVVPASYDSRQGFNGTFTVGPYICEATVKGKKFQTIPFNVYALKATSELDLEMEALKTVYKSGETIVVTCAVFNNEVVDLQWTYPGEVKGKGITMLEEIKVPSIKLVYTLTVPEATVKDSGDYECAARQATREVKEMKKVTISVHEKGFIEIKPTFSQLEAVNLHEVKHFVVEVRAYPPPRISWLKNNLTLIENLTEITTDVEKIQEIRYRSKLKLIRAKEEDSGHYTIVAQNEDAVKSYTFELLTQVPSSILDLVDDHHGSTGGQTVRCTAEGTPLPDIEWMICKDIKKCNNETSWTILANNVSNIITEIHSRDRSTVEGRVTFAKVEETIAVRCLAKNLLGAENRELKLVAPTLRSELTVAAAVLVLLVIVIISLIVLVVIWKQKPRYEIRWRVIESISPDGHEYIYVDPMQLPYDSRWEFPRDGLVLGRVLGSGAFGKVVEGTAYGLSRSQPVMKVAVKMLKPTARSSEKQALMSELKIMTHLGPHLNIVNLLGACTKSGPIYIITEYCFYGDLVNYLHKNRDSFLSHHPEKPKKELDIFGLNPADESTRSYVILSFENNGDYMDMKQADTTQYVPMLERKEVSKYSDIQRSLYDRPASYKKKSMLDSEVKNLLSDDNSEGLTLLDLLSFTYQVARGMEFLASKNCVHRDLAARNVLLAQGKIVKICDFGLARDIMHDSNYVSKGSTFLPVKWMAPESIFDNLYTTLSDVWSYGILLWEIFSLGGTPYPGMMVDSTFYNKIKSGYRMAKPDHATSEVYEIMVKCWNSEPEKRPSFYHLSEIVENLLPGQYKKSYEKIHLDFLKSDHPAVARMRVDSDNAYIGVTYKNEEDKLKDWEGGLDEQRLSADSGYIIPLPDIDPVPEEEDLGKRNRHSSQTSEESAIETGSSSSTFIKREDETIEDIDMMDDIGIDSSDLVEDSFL
Briefly: Inhibitory activity against PDGF-Ra phosphorylation by PDGF-AA stimulation using G292. It counts as cell-based. As to conditions: for IC50: Pharmacological Test Example 1, > means inhibition at indicated concentration not more than 50%, < and << not less than 50%, read-out: PDGF (E) IC50; for inhibition at 0.1 µM: G292, figure in parentheses in >100( ), at 100 nM, read-out: PDGF (E) inhibition (%) at 100 nM. The method in brief:
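In G-292 osteosarcoma cells kept overnight in 0.1% FBS, compound exposure (1 hr, 37 °C) preceded PDGF-AA stimulation at 50 ng/ml for 5 min; receptor phosphotyrosine was then detected by PY-20 capture ELISA.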

Molecules are shown by their SMILES.

As a reminder, the IC50 is the concentration needed to halve the response being measured. As a reminder, the inhibition is the share of the control response that was lost under treatment.

T1 sequence (P10721 26-976): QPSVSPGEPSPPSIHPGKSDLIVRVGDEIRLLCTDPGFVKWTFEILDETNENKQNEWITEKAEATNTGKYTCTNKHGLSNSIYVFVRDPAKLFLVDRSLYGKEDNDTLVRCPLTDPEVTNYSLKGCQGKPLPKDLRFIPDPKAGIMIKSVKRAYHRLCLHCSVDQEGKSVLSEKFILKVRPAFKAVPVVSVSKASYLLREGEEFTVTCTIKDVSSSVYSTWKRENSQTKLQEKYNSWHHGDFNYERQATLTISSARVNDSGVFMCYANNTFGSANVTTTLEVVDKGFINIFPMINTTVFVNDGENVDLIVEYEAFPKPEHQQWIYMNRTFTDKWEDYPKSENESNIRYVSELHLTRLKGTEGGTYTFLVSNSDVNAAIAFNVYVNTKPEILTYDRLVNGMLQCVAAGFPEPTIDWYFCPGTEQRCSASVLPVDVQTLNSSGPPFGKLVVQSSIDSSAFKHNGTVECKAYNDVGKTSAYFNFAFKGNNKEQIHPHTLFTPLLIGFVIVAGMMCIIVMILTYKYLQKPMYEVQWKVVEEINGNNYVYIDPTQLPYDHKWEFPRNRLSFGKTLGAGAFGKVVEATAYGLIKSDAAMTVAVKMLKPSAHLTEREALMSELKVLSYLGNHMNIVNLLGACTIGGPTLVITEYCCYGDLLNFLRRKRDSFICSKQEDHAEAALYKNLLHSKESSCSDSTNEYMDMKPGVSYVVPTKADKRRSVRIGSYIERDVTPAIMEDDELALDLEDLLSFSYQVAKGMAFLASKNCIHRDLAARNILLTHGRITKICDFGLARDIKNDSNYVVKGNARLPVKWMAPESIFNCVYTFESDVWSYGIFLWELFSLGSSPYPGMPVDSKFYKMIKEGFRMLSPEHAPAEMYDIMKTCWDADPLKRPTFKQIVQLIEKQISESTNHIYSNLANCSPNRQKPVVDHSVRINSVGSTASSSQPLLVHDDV

`COc1cc2nccc(Oc3ccc(NC(=O)Oc4c(OC)cccc4OC)cc3)c2cc1OC` [Example 280, 2,6-Dimethoxyphenyl N-{4-[(6,7-dimethoxy-4-quinolyl)oxy]phenyl}carbamate]: the values for the IC50 at c-kit and at PDGF-Ra were 0.37 µM and below 0.01 µM, respectively.
On to `COc1cc2nccc(Oc3cc(C)c(NC(=O)Oc4c(OC)cccc4OC)cc3C)c2cc1OC` [Example 281, 2,6-Dimethoxyphenyl N-{4-[(6,7-dimethoxy-4-quinolyl)oxy]-2,5-dimethylphenyl}carbamate], for which the IC50 at c-kit stood at 0.268 µM. At PDGF-Ra, the inhibition at 0.1 µM is 49% and the IC50 is above 0.1 µM.
For the compound `COc1cc2nccc(Oc3ccc(NC(=O)Oc4c(OC)cccc4OC)c(C)c3C)c2cc1OC` [Example 282, 2,6-Dimethoxyphenyl N-{4-[(6,7-dimethoxy-4-quinolyl)oxy]-2,3-dimethylphenyl}carbamate], the figures for the half-inhibitory concentration (IC50) at c-kit and on PDGF-Ra were 0.048 µM and 0.034 µM, respectively.
For `COc1cc2nccc(Oc3ccc(NC(=O)OCC4CCCCC4)cc3)c2cc1OC` [Example 283, Cyclohexylmethyl N-{4-[(6,7-dimethoxy-4-quinolyl)oxy]phenyl}carbamate], in that order: 0.121 µM and below 0.01 µM.
Consider `COc1cc2nccc(Oc3cc(C)c(NC(=O)OCC4CCCCC4)cc3C)c2cc1OC` [Example 284, Cyclohexylmethyl N-{4-[(6,7-dimethoxy-4-quinolyl)oxy]-2,5-dimethylphenyl}carbamate], for which the IC50 was 0.269 µM on c-kit and below 0.01 µM at PDGF-Ra.
On to `COc1cc2nccc(Oc3ccc(NC(=O)OCC4CCCCC4)c(C)c3C)c2cc1OC` [Example 285, Cyclohexylmethyl N-{4-[(6,7-dimethoxy-4-quinolyl)oxy]-2,3-dimethylphenyl}carbamate], for which the IC50 at c-kit is 0.085 µM; on PDGF-Ra it was below 0.01 µM.
In the same order, the values of `COc1cc2nccc(Oc3ccc(NC(=O)OC4CCCCCC4)cc3)c2cc1OC` [Example 286, Cycloheptyl N-{4-[(6,7-dimethoxy-4-quinolyl)oxy]phenyl}carbamate] are 0.054 µM and below 0.01 µM.
Consider `COc1cc2nccc(Oc3ccc(NC(=O)OC4CCCCCC4)c(C)c3C)c2cc1OC` [Example 288, Cycloheptyl N-{4-[(6,7-dimethoxy-4-quinolyl)oxy]-2,3-dimethylphenyl}carbamate], for which the 50% inhibitory concentration (IC50) on c-kit is 0.162 µM; on PDGF-Ra, below 0.01 µM.
For `COc1cc2nccc(Oc3cc(C)c(NC(=O)Oc4ccccc4C)cc3C)c2cc1OC` [Example 289, 2-Methylphenyl N-{4-[(6,7-dimethoxy-4-quinolyl)oxy]-2,5-dimethylphenyl}carbamate], in that order: 0.328 µM and below 0.01 µM.
With `COc1cccc(OC(=O)Nc2cc(C)c(Oc3ccnc4cc(OC)c(OC)cc34)cc2C)c1` [Example 290, 3-Methoxyphenyl N-{4-[(6,7-dimethoxy-4-quinolyl)oxy]-2,5-dimethylphenyl}carbamate], the results for the IC50 at c-kit and at PDGF-Ra were 0.281 µM and 0.047 µM, respectively.
In the same order, the values of `COc1cccc(OC(=O)Nc2ccc(Oc3ccnc4cc(OC)c(OC)cc34)c(C)c2C)c1` [Example 291, 3-Methoxyphenyl N-{4-[(6,7-dimethoxy-4-quinolyl)oxy]-2,3-dimethylphenyl}carbamate] are 0.124 µM and 0.026 µM.
As to `COc1cc2nccc(Oc3cc(C)c(NC(=O)OC4CCc5ccccc5C4)cc3C)c2cc1OC` (centres unmarked) [Example 292, 1,2,3,4-Tetrahydro-2-naphthalenyl N-{4-[(6,7-dimethoxy-4-quinolyl)oxy]-2,5-dimethylphenyl}carbamate], the values for the IC50 at c-kit and at PDGF-Ra were 0.262 µM and 0.014 µM, respectively.
For `COc1cc2nccc(Oc3ccc(NC(=O)OC4CCc5ccccc5C4)c(C)c3C)c2cc1OC` (centres unmarked) [Example 293, 1,2,3,4-Tetrahydro-2-naphthalenyl N-{4-[(6,7-dimethoxy-4-quinolyl)oxy]-2,3-dimethylphenyl}carbamate], in that order: 0.145 µM and below 0.01 µM.
Turning to `COc1cc2nccc(Oc3ccc(NC(=O)Oc4ccc(-c5ccccc5)cc4)cc3)c2cc1OC` [Example 294, 4-Phenylphenyl N-{4-[(6,7-dimethoxy-4-quinolyl)oxy]phenyl}carbamate], the IC50 came to 0.109 µM at c-kit and 0.015 µM at PDGF-Ra.
Turning to `COc1cc2nccc(Oc3cc(C)c(NC(=O)Oc4ccc(-c5ccccc5)cc4)cc3C)c2cc1OC` [Example 295, 4-Phenylphenyl N-{4-[(6,7-dimethoxy-4-quinolyl)oxy]-2,5-dimethylphenyl}carbamate], the IC50 on c-kit is 0.178 µM; at PDGF-Ra it was above 0.1 µM. Further, the inhibition at 0.1 µM at PDGF-Ra amounted to 45%.
Take `COc1cc2nccc(Oc3ccc(NC(=O)Oc4ccc(-c5ccccc5)cc4)c(C)c3C)c2cc1OC` [Example 296, 4-Phenylphenyl N-{4-[(6,7-dimethoxy-4-quinolyl)oxy]-2,3-dimethylphenyl}carbamate]: the half-maximal inhibitory concentration (IC50) at c-kit was 0.109 µM; at PDGF-Ra, 0.061 µM.
For `COc1cc2nccc(Oc3ccc(NC(=O)OCCc4ccccc4)cc3)c2cc1OC` [Example 297, Phenethyl N-{4-[(6,7-dimethoxy-4-quinolyl)oxy]phenyl}carbamate], in that order: 0.041 µM and below 0.01 µM.
In the case of `COc1cc2nccc(Oc3cc(C)c(NC(=O)OCCc4ccccc4)cc3C)c2cc1OC` [Example 298, Phenethyl N-{4-[(6,7-dimethoxy-4-quinolyl)oxy]-2,5-dimethylphenyl}carbamate], the half-maximal inhibitory concentration (IC50) was 0.119 µM at c-kit and below 0.01 µM on PDGF-Ra.
In the same order, the values of `COc1cc2nccc(Oc3ccc(NC(=O)OCCc4ccccc4)c(C)c3C)c2cc1OC` [Example 299, Phenethyl N-{4-[(6,7-dimethoxy-4-quinolyl)oxy]-2,3-dimethylphenyl}carbamate] are 0.053 µM and below 0.01 µM.
On to `COc1cc2nccc(Oc3ccc(NC(=O)Oc4ccccc4C(C)(C)C)cc3)c2cc1OC` [Example 300], for which the inhibition at 1 µM on c-kit is 43%. For the same compound, the IC50 on PDGF-Ra was below 0.01 µM.
On to `COc1cc2nccc(Oc3cc(C)c(NC(=O)Oc4ccccc4C(C)(C)C)cc3C)c2cc1OC` [Example 301, 2-(Tert-butyl)phenyl N-{4-[(6,7-dimethoxy-4-quinolyl)oxy]-2,5-dimethylphenyl}carbamate], for which, at c-kit, the inhibition at 1 µM stood at 39%. The IC50 on PDGF-Ra was 0.043 µM.
In the case of `COc1cc2nccc(Oc3ccc(NC(=O)Oc4ccccc4C(C)(C)C)c(C)c3C)c2cc1OC` [Example 302, 2-(Tert-butyl)phenyl N-{4-[(6,7-dimethoxy-4-quinolyl)oxy]-2,3-dimethylphenyl}carbamate], the IC50 at c-kit is 0.202 µM; at PDGF-Ra, 0.012 µM.
With `COc1cc2nccc(Oc3ccc(NC(=O)OCCN4CCCCC4)cc3)c2cc1OC` [Example 303, 2-Piperidinoethyl N-{4-[(6,7-dimethoxy-4-quinolyl)oxy]phenyl}carbamate], the IC50 was 0.188 µM on c-kit and 0.011 µM at PDGF-Ra.
In the case of `COc1cc2nccc(Oc3cc(C)c(NC(=O)OCCN4CCCCC4)cc3C)c2cc1OC` [Example 304, 2-Piperidinoethyl N-{4-[(6,7-dimethoxy-4-quinolyl)oxy]-2,5-dimethylphenyl}carbamate], the IC50 on c-kit was found to be 0.401 µM; at PDGF-Ra, 0.063 µM.
